Experimental data reported in patent publication US5462926A (Biomeasure, Inc., priority 1993, dated 1995).
Where two headings read alike, the source gives them in different places. Where a SMILES comes first, the peptide text is derived from it. Bridges are numbered along the chain shown (N, C = ends). [ ]: non-standard residue; d: D form. 2Nal = N[C@@H](Cc1ccc2ccccc2c1)C(=O)O; d2Nal = N[C@H](Cc1ccc2ccccc2c1)C(=O)O; Lys(iPr) = CC(C)NCCCC[C@H](N)C(=O)O

Tests used:
GRP receptor = GRP receptor (Rattus norvegicus, UniProt P52500); test: Amylase release from rat pancreatic acini (alone or Bn-stimulated); format: cell-based; parameters: from tissue; host or cells: dispersed pancreatic acini; settings: for Amylase Release, analog Alone (10 μM): analog 10 μM alone, control 4 ± 1; for Amylase Release, analog Plus Bn (0.3 nM): analog 10 μM plus Bn 0.3 nM, Bn without analog 15 ± 1; for IC50: read-out: IC50 Amylase Release, GRP Receptor, Rat Pancreatic Acini
Experimental: pancreatic acini or [^3 H]myo[2H]inositolloaded NMBR transfected cell
were incubated either with no additives, the somatostatin octapeptide
analog, Bn, or NMB, or a combination for 30 min at 37° C.. Amylase
release from pancreatic acini was expressed at the indicated percent of
the total cellular amylase released during the incubation. [^3 H]IP i
expressed in dpm's. To test for inhibitory effects, the effect of
somatostatin analog (10 μM) was determined on 0.3 nM Bnstimulated

NMB receptor = target: T1, NMB receptor (Rattus norvegicus, UniProt P24053); test: [3H]inositol phosphates in NMB-R transfected cells (alone or NMB-stimulated); format: cell-based; parameters: a full length NMB-preferring bombesin receptor clone generated from rat esophagus; expressed in transfected cells; settings: NMB-R transfected cells; for [3H]IP, analog Alone (10 μM): analog 10 μM alone, control 13 ± 3; for [3H]IP, analog Plus NMB (3 nM): analog 10 μM plus NMB 3 nM, NMB without analog 186 ± 58; for effect at 10 μM on NMB-stimulated increase in [3H]IP / IC50: 3 nM NMB
T1 sequence (P24053 1-390): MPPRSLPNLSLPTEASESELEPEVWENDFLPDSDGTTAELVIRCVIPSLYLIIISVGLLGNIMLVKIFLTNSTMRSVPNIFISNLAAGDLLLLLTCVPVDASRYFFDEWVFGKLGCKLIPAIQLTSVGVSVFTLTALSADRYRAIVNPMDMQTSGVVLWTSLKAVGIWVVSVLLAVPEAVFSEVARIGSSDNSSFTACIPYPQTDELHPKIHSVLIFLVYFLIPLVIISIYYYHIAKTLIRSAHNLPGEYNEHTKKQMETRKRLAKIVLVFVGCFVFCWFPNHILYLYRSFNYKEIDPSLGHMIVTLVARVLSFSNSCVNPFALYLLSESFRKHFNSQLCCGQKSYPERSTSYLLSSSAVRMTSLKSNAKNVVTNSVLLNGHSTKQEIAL
Experimental: As described previously [Wada, E., et al. Neuron 6:421 (1991)], BALB 3T3 cells expressing a stably transfected rat NMB receptor (NMB-R transfected cells) were obtained using calcium phosphate precipitation of a full length NMB-preferring bombesin receptor clone generated from rat esophagus and subcloned into a modified version of the pCD2 plasmid. Cells were passaged every 3-4 days at confluence, using 0.1% trypsin in 1 mM EDTA. Rat glioblastoma C-6 tumor cells were maintained similarly and were passaged weekly at confluence. Both cell lines were cultured at 37° C. in a 5% CO2 atmosphere. Rat AR 42J pancreatic acinar cells were cultured in Dulbecco's modified Eagle's medium (DMEM) without antibiotics and supplemented with 10% (vol/vol) fetal calf serum. The incubation atmosphere consisted of 10% CO2 -90% humidified air at 37° C.
Measurement of phosphoinositides
Total phosphoinositides in C-6 cells and in NMB-R transfected cells were determined as described previously, with minor modifications [Benya, R. V. et al. Mol. Pharmacol. 42:1058 (1992); and Wang, L-H. et al. Biochem. Jo 286:641 (1992)]. Cells were grown to confluence in 24-well plates and then loaded with 100 μCi/ml myo-[2-^3 H]inositol in Dulbecco's modified essential medium with 2% fetal bovine serum at 37° C. for 48 hrs. Cells were washed and incubated in phosphoinositide buffer (standard buffer additionally containing 10 mM LiCl, 20 mM HEPES, 2 mM CaCl2, 2% BSA, and 1.2 mM MgSO4) for 15 min and then for 60 min at 37° C. with agonists at various concentrations or with 3 nM NMB (a half-maximal effective concentration) and possible antagonists at different concentrations. Reactions were halted using ice-cold 1% HCl in methanol, and the inositol phosphates (IP) were isolated as described previously [Bologna, M. et al. Cancer 63:1714 (1989); and Endo, T. et al. J. Endocrinolo 131:313 (1991)]. Briefly, after loading of the anion exchange column, free [^3 H]glycerophosphorylinositol was removed by washing with 5 mM disodium tetraborate in 60 mM sodium formate. Total [^3 H]inositol phosphates were then eluted using 100 mM formic acid in 1.0M ammonium formate as described previously [Benya, R. V. et al. Mol. Pharmacol. 42:1058 (1992); and Wang, L-H. et al. Biochem. J. 286:641 (1992 )].

rat NMB receptor = target: T2, rat NMB receptor (Rattus norvegicus, UniProt P24053); test: Binding of 125I-[D-Tyr0]NMB to NMB-R transfected BALB 3T3 cells; settings: for fold decrease in NMB receptor affinity compared with cyclo SS-octa (#1): structure-function comparison from Table 1
T2 construct: a full length NMB-preferring bombesin receptor clone generated from rat esophagus; expressed in transfected cells
T2 sequence (P24053 1-390): T1 sequence (P24053 1-390)
Experimental: Cells were passaged every 3-4 days at confluence, using 0.1% trypsin in 1 mM EDTA. Rat glioblastoma C-6 tumor cells were maintained similarly and were passaged weekly at confluence. Both cell lines were cultured at 37° C. in a 5% CO2 atmosphere. Rat AR 42J pancreatic acinar cells were cultured in Dulbecco's modified Eagle's medium (DMEM) without antibiotics and supplemented with 10% (vol/vol) fetal calf serum. The incubation atmosphere consisted of 10% CO2 -90% humidified air at 37° C.

[1] = target: T3, NMB receptors on C-6 cells (Rattus norvegicus, UniProt P24053); test: Binding of 125I-[D-Tyr0]NMB to C-6 glioblastoma cells; settings: Ki by Cheng method, read-out: Ki 125I-NMB Binding, NMB Receptor, C-6 Cells
T3 construct: endogenous in cells; host or cells: rat glioblastoma C-6 cells
T3 sequence (P24053 1-390): T1 sequence (P24053 1-390)
Experimental: Binding of ^125 I-[D-Tyr^0 ]NMB to C-6 glioblastoma and NMB-R transfected cells
Binding studies using rat glioblastoma C-6 or NMB-R transfected cells were performed as described previously [Benya, R. V. et al. Mol. Pharmacol. 42:1058 (1992); and Wang, L-H. et al. Biochem. J. 286:641 (1992)] by suspending disaggregated cells in binding buffer, which was composed of standing buffer ([…], 7.7 mM KCl, 1.0 mM EGTA, 0.02% soybean trypsin inhibitor) additionally containing 50 mM HEPES, 1 mM MgCl2, 1.5 mM CaCl2, 2.2 mM KH2 PO4, 0,015% glutamine, and 0.2% BSA (w/v) (pH 7.4). Incubations contained 75 pM ^125 I-[D-Tyr^0 ]NMB and 15×10^6 C-6 cells/ml or 2×10^6 NMB-R transfected cells/ml, for 60 min at 22° C. Nonsaturable binding of ^125 I-[D-Tyr^0 ]NMB was the amount of radioactivity associated with C-6 cells or NMB-R transfected cells when the incubation mixture contained […] NMB. Nonsaturable binding was<15% of total binding in all experiments; all values are reported herein as saturable binding (i.e., total minus nonsaturable binding).

[2] = target: T4, GRP receptors on rat pancreatic acini (Rattus norvegicus, UniProt P52500); test: Binding of 125I-[Tyr4]bombesin to pancreatic acini; settings: read-out: Ki 125I-[Tyr4]Bn Binding, GRP Receptor, Rat Pancreatic Acini; Ki by Cheng method
T4 construct: from tissue; host or cells: dispersed pancreatic acini
Source text: Nonsaturable binding was<10% of total binding in all experiments.

[3] = read-out: IC50 NMB-stimulated [3H]IP, NMB Receptor, Transfected Cells
[4] = NMB-R transfected BALB 3T3 cells, Ki by Cheng method, read-out: Ki 125I-NMB Binding, NMB Receptor, Transfected Cells
[5] = NMB-R transfected cells, value or range given for a group, read-out: K1, 125I-NMB binding to NMB-R transfected cells (text)
[6] = read-out: IC50 NMB-stimulated [3H]IP, Transfected Cells (values in μM)

Sequence of GRP receptor (P52500 whole entry): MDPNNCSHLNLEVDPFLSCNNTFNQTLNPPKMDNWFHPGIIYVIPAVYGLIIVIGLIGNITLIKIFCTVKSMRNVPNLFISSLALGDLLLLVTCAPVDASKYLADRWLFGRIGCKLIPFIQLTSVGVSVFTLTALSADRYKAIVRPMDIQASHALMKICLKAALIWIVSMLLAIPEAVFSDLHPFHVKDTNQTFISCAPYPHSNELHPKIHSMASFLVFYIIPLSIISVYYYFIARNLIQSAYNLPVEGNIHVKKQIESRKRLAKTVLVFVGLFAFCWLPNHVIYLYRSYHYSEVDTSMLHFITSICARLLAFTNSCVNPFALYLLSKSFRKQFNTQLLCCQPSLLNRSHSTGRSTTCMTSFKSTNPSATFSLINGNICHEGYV
T4 sequence (P52500 whole entry): as above

Row | Compound | Amylase Release, analog Alone (10 μM) (GRP receptor) [% total] | Amylase Release, analog Plus Bn (0.3 nM) (GRP receptor) [% total] | [3H]IP, analog Alone (10 μM) (NMB receptor) [dym × 10^3] | [3H]IP, analog Plus NMB (3 nM) (NMB receptor) [dym × 10^3] | fold decrease in NMB receptor affinity compared with cyclo SS-octa (#1) (rat NMB receptor) [fold] | effect at 10 μM on NMB-stimulated increase in [3H]IP (NMB receptor) | fold by which cyclo SS-octa is more potent than the analog, 125I-NMB binding (rat NMB receptor; NMB-R transfected cells) [fold] | Ki [1] [µM] | IC50 (GRP receptor) [µM] | IC50 (NMB receptor; [3]) [µM] | Ki [2] [µM] | Ki (rat NMB receptor; [4]) [µM] | Ki (rat NMB receptor; [5]) [µM] | IC50 (NMB receptor; [6]) [µM]
1 | NCCCC[C@@H]1NC(=O)[C@@H](Cc2c[nH]c3ccccc23)NC(=O)[C@H](Cc2ccc(O)cc2)NC(=O)[C@@H](NC(=O)[C@H](N)Cc2ccc3ccccc3c2)CSSC[C@@H](C(=O)N[C@@H](Cc2ccc3ccccc3c2)C(N)=O)NC(=O)[C@H](Cc2ccc3ccccc3c2)NC1=O [Analog #3, H2 -D-Nal-Cys-Tyr-D-Trp-Lys-Nal-Cys-Nal-NH2] (H-[d2Nal]CY[dW]K[2Nal]C[2Nal]-NH2; disulfide 2-7) | 3 ± 1 | 15 ± 1 | 11 ± 1 | 65 ± 15 | 2 to 3 | – | – | – | – | – | – | – | – | –
2 | CC(C)[C@@H]1NC(=O)[C@H](CCCCN)NC(=O)[C@@H](Cc2c[nH]c3ccccc23)NC(=O)[C@H](Cc2ccc(O)cc2)NC(=O)[C@@H](NC(=O)[C@H](N)Cc2ccc3ccccc3c2)CSSC[C@@H](C(=O)N[C@H](C(N)=O)[C@@H](C)O)NC1=O [Analog #5] | 3 ± 1 | 12 ± 1 | 11 ± 2 | 179 ± 13 | 80 | no effect | 69 | – | – | – | – | – | – | –
3 | C[C@@H](O)[C@H](NC(=O)[C@@H]1CSSC[C@H](NC(=O)[C@H](N)Cc2ccc3ccccc3c2)C(=O)N[C@@H](Cc2ccc(O)cc2)C(=O)N[C@H](Cc2c[nH]c3ccccc23)C(=O)N[C@@H](CCCCN)C(=O)N[C@@H]([C@@H](C)O)C(=O)N1)C(N)=O [Analog #6] | 3 ± 1 | 14 ± 2 | 11 ± 2 | 188 ± 30 | – | no effect | 69 | 8.29 ± 2.43 | > 10 | > 10 | > 10 | 16.4 ± 4.46 | 14 to 19 | –
4 | CC(C)NCCCC[C@@H]1NC(=O)[C@@H](Cc2c[nH]c3ccccc23)NC(=O)[C@H](Cc2ccc(O)cc2)NC(=O)[C@@H](NC(=O)[C@H](N)Cc2ccccc2)CSSC[C@@H](C(=O)N[C@@H](Cc2ccc3ccccc3c2)C(N)=O)NC(=O)[C@H]([C@@H](C)O)NC1=O [Analog #15, H2 -D-phe-Cys-Tyr-D-Trp-Lys(ipr)-Thr-Cys-Nal-NH2] (H-[dF]CY[dW][Lys(iPr)]TC[2Nal]-NH2; disulfide 2-7) | 4 ± 2 | 13 ± 2 | 11 ± 1 | 67 ± 7 | – | – | 9 | 1.14 ± 0.105 | > 10 | 9.9 ± 2.31 | 38.1 ± 21.5 | 2.33 ± 0.397 | 1.4 to 2.3 | 7.2 to 9.8
5 | CC(C)[C@@H]1NC(=O)[C@H](CCCCN)NC(=O)[C@@H](Cc2c[nH]c3ccccc23)NC(=O)[C@H](Cc2ccc3ccccc3c2)NC(=O)[C@@H](NC(=O)[C@H](N)Cc2ccccc2)CSSC[C@@H](C(=O)N[C@H](C(N)=O)[C@@H](C)O)NC1=O [Analog #18] (H-[dF]C[2Nal][dW]KVCT-NH2; disulfide 2-7) | – | – | 11 ± 1 | 143 ± 11 | – | no effect | – | 8.32 ± 0.957 | – | – | – | – | 14 to 19 | > 10
6 | C[C@H](N)C(=O)NCC(=O)N[C@H]1CSSC[C@@H](C(=O)O)NC(=O)[C@H](CO)NC(=O)[C@H]([C@@H](C)O)NC(=O)[C@H](Cc2ccccc2)NC(=O)[C@H]([C@@H](C)O)NC(=O)[C@H](CCCCN)NC(=O)[C@H](Cc2c[nH]c3ccccc23)NC(=O)[C@H](Cc2ccccc2)NC(=O)[C@H](Cc2ccccc2)NC(=O)[C@H](CC(N)=O)NC(=O)[C@H](CCCCN)NC1=O [SS-14, somatostatin-14, reference compound] | 3 ± 1 | 12 ± 1 | – | – | – | – | – | – | – | – | – | – | – | –
7 | CSCC[C@H](NC(=O)[C@H](C)NC(=O)[C@@H]1CCCN1C(=O)[C@H](CC(N)=O)NC(=O)[C@H](CO)NC(=O)[C@H](CC(N)=O)NC(=O)[C@H](C)NC(=O)[C@@H](N)CO)C(=O)N[C@@H](C)C(=O)N1CCC[C@H]1C(=O)N[C@@H](CCCNC(=N)N)C(=O)N[C@@H](CCC(=O)O)C(=O)N[C@@H](CCCNC(=N)N)C(=O)N[C@@H](CCCCN)C(=O)N[C@@H](C)C(=O)NCC(=O)N[C@H]1CSSC[C@@H](C(=O)O)NC(=O)[C@H](CO)NC(=O)[C@H]([C@@H](C)O)NC(=O)[C@H](Cc2ccccc2)NC(=O)[C@H]([C@@H](C)O)NC(=O)[C@H](CCCCN)NC(=O)[C@H](Cc2c[nH]c3ccccc23)NC(=O)[C@H](Cc2ccccc2)NC(=O)[C@H](Cc2ccccc2)NC(=O)[C@H](CC(N)=O)NC(=O)[C@H](CCCCN)NC1=O [SS-28, somatostatin-28, reference compound] | 4 ± 1 | 10 ± 1 | – | – | – | – | – | – | – | – | – | – | – | –
